COC(=O)[C@H](N)c1ccccc1.Cl
solubility (mole fraction)
Details	in acetone	in ethanol	in ethyl acetate	in methanol	in toluene	in water
283.15 K	1.3e-05	0.015	3.9e-05	0.076	9e-06	0.045
293.15 K	3.6e-05	0.022	8.5e-05	0.081	1.5e-05	0.058
303.15 K	7.8e-05	0.028	0.00015	0.085	2.3e-05	0.068
313.15 K	0.00013	0.033	0.00021	0.09	3.3e-05	0.077
323.15 K	0.00018	0.037	0.00025	0.096	4.4e-05	0.086
333.15 K	0.00025	0.042	0.00029	0.1	5.6e-05	0.095

From BigSolDB 2.1
